Earlier results, collected in patent EP0262930B1, “Process for forming a colour positive image” (KONICA CORPORATION, priority 1986, dated 1988).

conditions: partition coefficient n-octanol/water; solvents not desired in the color developing solution

log P | SMILES
log P 0.4 or more | CCCCCO [1-Pentanol]
log P 0.41 | OCCOCc1ccccc1 [2-Benzyloxyethanol]
log P 1.0 | OCc1ccccc1 [Benzyl alcohol]
log P 0.4 or more | NCc1ccccc1 [Benzylamine]
log P 0.41. | CCCCOCCOCCO [Diethylene glycol monobutyl ether]
log P 0.4 or more | OCc1ccc(O)cc1 [p-Hydroxybenzyl alcohol]
log P 1.36 | Cc1ccc(CO)cc1 [p-Tolylcarbinol]

SMILES | log P
Oc1ccccc1 [Phenol] | log P 0.4 or more
